In ChEMBL document CHEMBL3886176, “TSH receptor antagonizing tetrahydroquinoline compounds” (2015):

Target: Thyrotropin receptor (Homo sapiens, UniProt P16473)
Format: functional, cell-based, CHO

Sequence of Thyrotropin receptor (P16473 whole entry): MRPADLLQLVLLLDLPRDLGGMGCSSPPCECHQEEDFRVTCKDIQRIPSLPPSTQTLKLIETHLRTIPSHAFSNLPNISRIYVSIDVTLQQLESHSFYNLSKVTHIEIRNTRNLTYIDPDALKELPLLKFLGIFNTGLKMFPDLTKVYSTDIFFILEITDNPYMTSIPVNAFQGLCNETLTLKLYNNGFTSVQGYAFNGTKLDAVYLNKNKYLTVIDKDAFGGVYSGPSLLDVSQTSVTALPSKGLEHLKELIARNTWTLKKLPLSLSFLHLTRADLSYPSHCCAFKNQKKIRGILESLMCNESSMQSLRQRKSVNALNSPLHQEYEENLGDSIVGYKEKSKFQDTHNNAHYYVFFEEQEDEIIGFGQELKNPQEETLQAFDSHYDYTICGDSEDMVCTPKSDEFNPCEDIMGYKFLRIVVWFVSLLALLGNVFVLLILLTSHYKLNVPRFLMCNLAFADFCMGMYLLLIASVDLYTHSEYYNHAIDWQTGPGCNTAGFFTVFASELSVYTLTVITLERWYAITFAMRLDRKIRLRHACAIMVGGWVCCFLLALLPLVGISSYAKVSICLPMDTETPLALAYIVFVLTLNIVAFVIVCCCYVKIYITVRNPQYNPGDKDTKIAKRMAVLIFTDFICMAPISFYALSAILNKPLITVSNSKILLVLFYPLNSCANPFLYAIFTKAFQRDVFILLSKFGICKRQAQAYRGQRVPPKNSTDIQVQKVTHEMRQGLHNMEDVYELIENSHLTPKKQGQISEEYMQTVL

## CC(=O)N1CCC(C)(c2ccccc2)c2cc(NC(=O)c3ccc(Br)s3)ccc21 (stereo unspecified)
  IC50: < 0.1 µM
